Results taken from US11648255B2, “Inhibitors for treatment of hematological malignancies” (Masarykova Univerzita, priority 2020, dated 2023).

Assays:
[1] = system: phospho-GAB1 Y307 in primary CLL cells; assay: immunoblot of GAB1 phosphorylation after stimulation with SDF1 or conditioned media, with or without plerixafor; assay type: cell-based, human
Procedure: Samples were sonicated 2×10 seconds, amplitude 60% (type: UP100H; Hielscher). […] Electrophoresis was conducted using Biorad Miniprotean system (Biorad) according to manufacturer protocol (voltage: 60-110 V, electrophoresis buffer: 25 mM TRIS, 250 mM glycine, […], pH 8.2; all reagents were obtained from Sigma Aldrich; catalog numbers: L3771, T6066, H1758, G8898). Proteins were subsequently transferred to the PVDF membrane (0.45 μm pore size, Millipore) using Biorad Miniprotean system (Biorad) according to manufacturer protocol (blot buffer: 20% methanol, 192 mM glycine, 25 mM TRIS; all reagents were obtained from Sigma Aldrich; catalog numbers: 34860, T6066, H1758, G8898).
HS5 cells (3.5×10^6) were seeded in T75 cultivation flask (TPP) in 12 ml of Dulbecco's Modified Eagle's Medium media (DMEM, catalog number: D6429, Sigma-Aldrich). The next day was original media discarded, the cells attached to the bottom of the flask were washed once with 10 ml of PBS (catalog number: 5493; Sigma Aldrich). Subsequently, the 25 ml of RPMI-1640 (catalog number: R8758, Sigma-Aldrich) media was added to the attached HS5 cells. […] This media was immediately used for experiments.
Primary CLL cells (5×10^6/ml) were cultured as described in Material and Method section. […]

[2] = system: ML2 (Acute myeloid leukemia); assay: viability by DiOC6/PI staining, ibrutinib and/or GAB1 inhibitors; assay type: cell-based; settings: ibrutinib 1 μM six days, then GAB1 inhibitors 25 μM 48 hours, DMSO control 76.92
Procedure: (§1) Cells were cultivated for six days (see Material and Method section) and ibrutinib or DMSO were supplemented each second day. […] The analysis was performed using BD FACS Verse flow cytometer (BD Biosciences).

[3] = system: OciLy5 (Small lymphocytic leukemia); assay: as above; assay type: cell-based; settings: ibrutinib 1 μM six days, then GAB1 inhibitors 25 μM 48 hours, DMSO control 81.47
Procedure: as §1

[4] = system: JEKO (Mantle cell lymphoma); assay: as above; assay type: cell-based; settings: ibrutinib 1 μM six days, then GAB1 inhibitors 25 μM 48 hours, DMSO control 76.64
Procedure: as §1

[5] = system: MEC1 cells; assay: as above; assay type: cell-based; settings: ibrutinib 1 μM six days, then GAB1 inhibitors 25 μM 48 hours, DMSO control 85.20
Procedure: Cells were cultivated for six days (see Material and Method section) and ibrutinib or DMSO were supplemented each second day. […] After that were cells harvested and stained for viability using DiOC6/PI (3,3′-dihexyloxacarbocyanine iodide together with propidium iodide (catalog numbers: D273 and P3566; both were obtained from Thermo Fisher Scientific). Cells were stained and analyzed according to manufacturer protocol. The analysis was performed using BD FACS Verse flow cytometer (BD Biosciences).

[6] = system: primary CLL cells; assay: viability by DiOC6/PI staining, flow cytometry; assay type: cell-based; settings: Homo sapiens, CLL cell, 48 hours, DMSO control 55.67
Procedure: To see the effect of GAB1 inhibitors on malignant B cell viability we treated 5×10^6/ml of primary CLL cells with different doses (10, 25 or 50 μM) of GAB1-001 inhibitor (inhGAB1-001) or GAB1-004 inhibitor (inhGAB1-004) for 48 hours. These inhibitors were obtained from MD Anderson, USA (Lu Chen et al., PLoS Comput Biol. 2015; 11(1): e1004021.). Control cells were treated with an equal volume of DMSO also for 48 hours (culture conditions are described in the Material and Method section). After that, the cells were stained with DiOC6/PI (3,3′-dihexyloxacarbocyanine iodide together with propidium iodide; catalog numbers: D273 and P3566; both were obtained from Thermo Fisher Scientific). Cells were stained and analyzed according to manufacturer protocol. The analysis was performed using BD FACS Verse flow cytometer (BD Biosciences).

[7] = system: primary CLL cells; assay: Ca2+ flux (Fluo-4AM, flow cytometry) after SDF1 stimulation; assay type: cell-based, human; settings: 25 μM inhibitor 6 hours, SDF1 100 μg/ml
Procedure: Primary CLL cells (5×10^6/ml) were treated with 25 μM GAB1-001 inhibitor (inhGAB1-001) or GAB1-004 inhibitor (inhGAB1-004) for 6 hours (culture conditions are described in the Material and Method section). These inhibitors were obtained from MD Anderson, USA (Lu Chen et al., PLoS Comput Biol. 2015; 11(1): e1004021.). Control cells were treated with an equal volume of DMSO also for 6 hours. After that were these cells incubated in Hanks Balanced Salt Solution (HBSS, catalog number: H6648, Sigma Aldrich) containing […] Fluo-4AM (catalog number: F14201, Thermo Fisher Scientific) for 30 minutes at 37° C. in the dark. The cells were subsequently prepared for analysis according to instructions provided by the manufacturer of Fluo-4AM. The malignant B cells were subsequently analyzed by flow cytometry (BD FACS Verse, BD Biosciences). Samples were acquired for 60 seconds without stimulation. After that the cells were immediately stimulated by SDF1 100 μg/ml (catalog number: 300-28A, Peprotech). […] To calculate the response to SDF1, we established a baseline fluorescence threshold for each sample (by acquiring samples for 60 seconds without any stimulus). We then calculated the peak Fluo-4AM signal and the percentage of cells with fluorescence intensity above baseline Fluo-4AM signal following stimulation addition.

[8] = system: GRANTA (Acute lymphoblastic leukemia); assay: viability by DiOC6/PI staining, GAB1 inhibitors; assay type: cell-based; settings: 48 hours, DMSO control 87.24
Procedure: (§2) In a further experiment, 2.5×10^6/ml of RAMOS (derived from Burkitt's lymphoma) or DOHH2 (derived from diffuse large B cell lymphoma) or GRANTA (derived from […]) or WSU-NHL (derived from follicular lymphoma) cells was treated with treated with two different GAB inhibitors (inhGAB1-001 and inhGAB1-004; provided by MD Anderson, USA (Lu Chen et al., PLoS Comput Biol. 2015; 11(1): e1004021.) at final concentration 25 μM, or with an equal volume of vehicle (DMSO) for 48 hours. After that, cells were harvested and stained for viability using DiOC6/PI (3,3′-dihexyloxacarbocyanine iodide together with propidium iodide; catalog numbers: D273 and P3566; both were obtained from Thermo Fisher Scientific). Cells were stained and analyzed according to manufacturer protocol. The analysis was performed using BD FACS Verse flow cytometer (BD Biosciences).

[9] = system: WSU-NHL (Follicular lymphoma); assay: viability by DiOC6/PI staining, GAB1 inhibitors; assay type: cell-based; settings: Homo sapiens, 48 hours, DMSO control 87.34
Procedure: as §2

[10] = system: RAMOS (Burkitt's lymphoma); assay: viability by DiOC6/PI staining, GAB1 inhibitors; assay type: cell-based; settings: Homo sapiens, 48 hours, DMSO control 95.01
Procedure: as §2

[11] = system: DOHH2 (GC-DLBCL); assay: viability by DiOC6/PI staining, GAB1 inhibitors; assay type: cell-based; settings: Homo sapiens, DOHH-2, 48 hours, DMSO control 81.84
Procedure: as §2

[12] = system: primary CLL cells; assay: competitive migration assay (transwell) after inhibitor treatment; assay type: cell-based, human; settings: GAB1 inhibitors 50 μM, ibrutinib 1 μM, 12 hours, migration towards conditioned media (50%) 6 hours, control set to 1
Procedure: HS5 cells (3.5×10^6) were seeded in T75 cultivation flask (TPP) in 12 ml of Dulbecco's Modified Eagle's Medium media (DMEM, catalog number: D6429, Sigma-Aldrich). The next day was original media discarded, the cells attached to the bottom of the flask were washed once with 10 ml of PBS (catalog number: 5493; Sigma Aldrich). Subsequently, the 25 ml of RPMI-1640 (catalog number: R8758, Sigma-Aldrich) media was added to the attached HS5 cells. After 48 hours was this conditioned media collected, purified from cell-debris by 10 minutes centrifugation at 2000 RCF and subsequently diluted with fresh RPMI-1640 media (catalog number: R8758, Sigma-Aldrich) containing 10% FBS (catalog number: FB-1350; Biosera) and 5% penicillin/streptomycin (catalog number: P4333; Sigma Aldrich) to final concentration 50% conditioned media. This media was immediately used for experiments.
To compare the migration, the stained cells (control cells plus one treated variant) were mixed in ratio 1:1 and loaded in transwell inserts (24 well insert, 8 μm pore size; Falcon, Corning) according to manufacturer protocol. […] The ratio of migrated inhibitor-treated cells was calculated by dividing of the percentage of migrated inhibitor-treated cells by percentage of migrated control cells.

Compound: c1cc(CN2CCCNCCNCCCNCC2)ccc1CN1CCCNCCNCCCNCC1 [plerixafor]
- GAB1 phosphorylation on conditioned media in the presence of plerixafor (FIG. 1A) ([1]; plerixafor 5 μg/ml 8 hours, 50% conditioned media 5 minutes): also led to GAB1 phosphorylation

Compound: SDF1: Stromal cell-derived factor 1, chemokine ligand used as stimulus
- GAB1 phosphorylation on stimulation (FIG. 1A) ([1]; SDF1 100 ng/ml, 5 minutes): phosphorylation and thus activation of GAB1 protein

Compound: C=CC(=O)N1CCC[C@@H](n2nc(-c3ccc(Oc4ccccc4)cc3)c3c(N)ncnc32)C1 [ibrutinib]
- % of viability [2]: 68.93%
- % of viability [3]: 80.33%
- % of viability [4]: 60.14%
- % of viability [5]: 81.66%

Compound: O=c1[nH]nc(SCc2csc(-c3ccccc3)n2)n1Cc1ccco1 [inhGAB1-004]
- % of viability [2]: 28.07%
- % of viability [3]: 62.46%
- % of viability [4]: 49.20%
- viability at 10 µM [6]: 44.7%
- viability at 25 µM [6]: 42.6%
- viability at 50 µM [6]: 37.4%
- Ca2+ flux after treatment with SDF1 (FIG. 2G) [7]: decreases the Ca^2+ flux
- viability at 25 µM [8]: 74.1%
- viability at 25 µM [9]: 70.2%
- viability at 25 µM [10]: 74.6%
- viability at 25 µM [11]: 72.3%
- % of viability [5]: 74.52%
- Ratio of migrated cells [12]: 0.75

Compound: O=S(=O)(NCc1csc2ccc(Cl)cc12)c1cc(S(=O)(=O)c2ccccc2)cs1 [inhGAB1-001]
- % of viability [2]: 6.86%
- % of viability [3]: 53.12%
- % of viability [4]: 2.88%
- viability at 10 µM [6]: 52.8%
- viability at 25 µM [6]: 50.3%
- viability at 50 µM [6]: 31%
- Ca2+ flux after treatment with SDF1 (FIG. 2G) [7]: decreases the Ca^2+ flux
- viability at 25 µM [8]: 4.49%
- viability at 25 µM [9]: 29.4%
- viability at 25 µM [10]: 50.3%
- viability at 25 µM [11]: 51.9%
- % of viability [5]: 67.00%
- Ratio of migrated cells [12]: 0.79
